According to ChEMBL document CHEMBL4627268, “Development of a potent and orally active activator of adenosine monophosphate-activated protein kinase (AMPK), ASP4132, as a clinical candidate for the treatment of human cancer” (Bioorg Med Chem, 2020):

Experiments:
[1] = Total clearance in Sprague-Dawley rat at 1 mg/kg, iv by LC-MS/MS analysis; assay type: ADME, organism-based; conditions: in vivo
[2] = Drug metabolism in Sprague-Dawley rat hepatocytes assessed as esterase-mediated anilide hydrolysis; assay type: ADME, cell-based; conditions: isolated protein
[3] = Intrinsic clearance in human liver microsomes at 0.1 to 0.2 umol/L incubated for 30 mins in presence of NADPH by LC-MS/MS analysis; assay type: ADME, Microsome; conditions: read-out: CLH
[4] = Tmax in Sprague-Dawley rat at 1 mg/kg, po by LC-MS/MS analysis; assay type: ADME, organism-based; conditions: in vivo
[5] = AUC (0 to 24 hrs) in Sprague-Dawley rat at 1 mg/kg, iv by LC-MS/MS analysis; assay type: ADME, organism-based; set-up: time < 24 hr, dose 1 mg/kg, route intravenous; conditions: in vivo
[6] = Cmax in Sprague-Dawley rat at 1 mg/kg, po by LC-MS/MS analysis; assay type: ADME, organism-based; set-up: dose 1 mg/kg, route oral; conditions: in vivo
[7] = Volume of distribution at steady state in Sprague-Dawley rat at 1 mg/kg, iv by LC-MS/MS analysis; assay type: ADME, organism-based; conditions: in vivo, read-out: Vdss
[8] = AUC (0 to 24 hrs) in Sprague-Dawley rat at 1 mg/kg, po by LC-MS/MS analysis; assay type: ADME, organism-based; set-up: time < 24 hr, dose 1 mg/kg, route oral; conditions: in vivo
[9] = Oral bioavailability in Sprague-Dawley rat at 1 mg/kg by LC-MS/MS analysis; assay type: ADME, organism-based; conditions: in vivo
[10] = Elimination half-life in Sprague-Dawley rat at 1 mg/kg, iv by LC-MS/MS analysis; assay type: ADME, organism-based; conditions: in vivo, read-out: beta t1/2 (converted)

clearance [1] [mL/min/kg]	Drug metabolism [2]	CLint scaled [3] [mL/min/kg]	Tmax [4] [h]	AUC(0-t) at 24 h [5] [ng·h/mL]	Cmax [6] [ng/mL]	Vd [7] [L/kg]	AUC(0-t) at 24 h [8] [ng·h/mL]	bioavailability [9] [%]	half-life [10] [h]	Compound
137	Metabolite_Detected	77	0.5	123	1.9	50.9	13.3	11	3.5	COc1ccc(CN2CCC(C(=O)Nc3ccc(C(=O)N4CCN(Cc5ccc(C(F)(F)F)cc5)CC4)cc3)CC2)cn1
19		61	1.7	887	72	4.6	705	80	3.6	COc1ccc(CN2CCC(c3ccc4[nH]c(C(=O)N5CCN(Cc6ccc(C(F)(F)F)cc6)CC5)nc4c3)CC2)cn1.Cc1ccc(S(=O)(=O)O)cc1.Cc1ccc(S(=O)(=O)O)cc1
		185								COc1ccc(CN2CCN(C(=O)Nc3ccc(C(=O)N4CCN(Cc5ccc(C(F)(F)F)cc5)CC4)cc3)CC2)cc1
		158								O=C(Nc1ccc(C(=O)N2CCN(Cc3ccc(C(F)(F)F)cc3)CC2)cc1)N1CCN(Cc2ccc(C(F)(F)F)cc2)CC1
